pIC50: −log10 of the molar value.
How the values were obtained:
[1] = system: Cell proliferation, B-Cell+LPS; assay: Pharmacological profile: cell proliferation; format: cell-based
Excerpt: (§1) Table 1 Pharmacological profile of SM-345431 (part 1) | column: IC50 (μm)

[2] = system: Cell proliferation, T-Cell+Con A; assay: Pharmacological profile: cell proliferation; format: cell-based
Excerpt: as §1

CDK5/p35 = CDK5/p35 (Homo sapiens, UniProt Q00535); assay: Kinase inhibition test; format: biochemical
Excerpt: (§2) Table 2 Pharmacological profile of SM-345431 (part 2) | column: IC50 (μm)

CaMKII = assay: Kinase inhibition test; format: biochemical
Excerpt: as §2

EGFR = EGFR (Homo sapiens, UniProt P00533); assay: Kinase inhibition test; format: biochemical
Excerpt: as §2

EphA2 = EphA2 (Homo sapiens, UniProt P29317); assay: Kinase inhibition test; format: biochemical
Excerpt: as §2

EphA4 = EphA4 (Homo sapiens, UniProt P54764); assay: Kinase inhibition test; format: biochemical
Excerpt: as §2

EphB2 = EphB2 (Homo sapiens, UniProt P29323); assay: Kinase inhibition test; format: biochemical
Excerpt: as §2

EphB4 = EphB4 (Homo sapiens, UniProt P54760); assay: Kinase inhibition test; format: biochemical
Excerpt: as §2

FGFR1 = FGFR1 (Homo sapiens, UniProt P11362); assay: Kinase inhibition test; format: biochemical
Excerpt: as §2

FGFR3 = FGFR3 (Homo sapiens, UniProt P22607); assay: Kinase inhibition test; format: biochemical
Chain of FGFR3 (P22607 23-806, species assumed): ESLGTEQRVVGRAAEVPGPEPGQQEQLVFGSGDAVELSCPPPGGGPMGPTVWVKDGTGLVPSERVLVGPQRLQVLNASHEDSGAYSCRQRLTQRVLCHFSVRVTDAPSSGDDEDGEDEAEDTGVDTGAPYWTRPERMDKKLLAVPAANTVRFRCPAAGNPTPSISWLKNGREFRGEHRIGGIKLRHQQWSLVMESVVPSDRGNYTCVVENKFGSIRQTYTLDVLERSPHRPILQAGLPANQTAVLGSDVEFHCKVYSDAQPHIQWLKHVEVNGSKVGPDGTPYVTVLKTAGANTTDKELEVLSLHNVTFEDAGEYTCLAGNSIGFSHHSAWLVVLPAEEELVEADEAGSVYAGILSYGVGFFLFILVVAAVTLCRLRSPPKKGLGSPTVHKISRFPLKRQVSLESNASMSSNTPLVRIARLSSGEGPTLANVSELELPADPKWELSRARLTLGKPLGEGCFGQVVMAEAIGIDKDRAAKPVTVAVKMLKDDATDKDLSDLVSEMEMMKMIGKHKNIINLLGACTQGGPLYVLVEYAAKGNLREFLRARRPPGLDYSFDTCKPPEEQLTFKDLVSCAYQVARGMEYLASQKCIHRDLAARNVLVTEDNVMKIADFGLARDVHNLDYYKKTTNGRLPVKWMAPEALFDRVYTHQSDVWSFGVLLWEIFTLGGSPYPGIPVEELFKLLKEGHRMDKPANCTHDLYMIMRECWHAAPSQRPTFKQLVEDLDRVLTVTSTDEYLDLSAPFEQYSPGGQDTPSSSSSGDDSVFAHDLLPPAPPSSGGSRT
Excerpt: as §2

FGFR4 = FGFR4 (Homo sapiens, UniProt P22455); assay: Kinase inhibition test; format: biochemical
Excerpt: as §2

Flt1 = Flt1 (Homo sapiens, UniProt P17948); assay: Kinase inhibition test; format: biochemical
Chain of Flt1 (P17948 27-1338, species assumed): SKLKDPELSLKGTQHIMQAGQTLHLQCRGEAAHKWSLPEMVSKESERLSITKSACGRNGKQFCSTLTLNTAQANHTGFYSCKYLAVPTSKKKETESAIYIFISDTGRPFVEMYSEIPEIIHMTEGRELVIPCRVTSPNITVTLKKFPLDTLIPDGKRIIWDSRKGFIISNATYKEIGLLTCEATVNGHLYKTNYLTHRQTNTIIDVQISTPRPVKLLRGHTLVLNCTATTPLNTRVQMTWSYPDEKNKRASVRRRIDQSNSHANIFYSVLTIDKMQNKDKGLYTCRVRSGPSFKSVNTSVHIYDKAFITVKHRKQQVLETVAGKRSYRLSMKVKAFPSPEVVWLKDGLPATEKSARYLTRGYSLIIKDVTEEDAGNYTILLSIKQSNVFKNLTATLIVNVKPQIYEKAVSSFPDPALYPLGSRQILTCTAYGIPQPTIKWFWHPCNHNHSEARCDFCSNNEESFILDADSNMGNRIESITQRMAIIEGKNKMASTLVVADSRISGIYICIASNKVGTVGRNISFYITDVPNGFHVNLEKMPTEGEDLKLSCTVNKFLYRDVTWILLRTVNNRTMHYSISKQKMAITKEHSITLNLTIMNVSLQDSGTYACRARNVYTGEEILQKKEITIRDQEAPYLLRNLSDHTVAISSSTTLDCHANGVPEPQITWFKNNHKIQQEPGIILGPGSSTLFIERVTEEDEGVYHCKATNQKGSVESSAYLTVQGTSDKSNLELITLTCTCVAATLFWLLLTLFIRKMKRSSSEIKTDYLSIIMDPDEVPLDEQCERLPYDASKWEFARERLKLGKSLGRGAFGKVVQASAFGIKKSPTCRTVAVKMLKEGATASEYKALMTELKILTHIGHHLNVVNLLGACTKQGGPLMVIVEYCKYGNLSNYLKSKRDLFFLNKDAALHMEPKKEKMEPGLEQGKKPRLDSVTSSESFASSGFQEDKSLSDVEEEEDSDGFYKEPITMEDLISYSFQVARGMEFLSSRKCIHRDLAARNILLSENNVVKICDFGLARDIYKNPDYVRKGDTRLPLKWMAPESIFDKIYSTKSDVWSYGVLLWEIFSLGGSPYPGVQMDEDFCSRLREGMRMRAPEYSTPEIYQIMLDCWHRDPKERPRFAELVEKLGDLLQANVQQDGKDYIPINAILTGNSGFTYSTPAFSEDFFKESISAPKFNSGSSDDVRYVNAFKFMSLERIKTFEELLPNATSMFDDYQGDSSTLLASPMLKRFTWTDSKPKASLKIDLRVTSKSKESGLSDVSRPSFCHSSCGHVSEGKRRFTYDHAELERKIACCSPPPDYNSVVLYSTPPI
Excerpt: as §2

Flt3 = Flt3 (Homo sapiens, UniProt P36888); assay: Kinase inhibition test; format: biochemical
Excerpt: as §2

GSK3α = GSK3α (Homo sapiens, UniProt P49840); assay: Kinase inhibition test; format: biochemical
Excerpt: as §2

IGF-1R = IGF-1R (Homo sapiens, UniProt P08069); assay: Kinase inhibition test; format: biochemical
Chain of IGF-1R (P08069 31-1367, species assumed): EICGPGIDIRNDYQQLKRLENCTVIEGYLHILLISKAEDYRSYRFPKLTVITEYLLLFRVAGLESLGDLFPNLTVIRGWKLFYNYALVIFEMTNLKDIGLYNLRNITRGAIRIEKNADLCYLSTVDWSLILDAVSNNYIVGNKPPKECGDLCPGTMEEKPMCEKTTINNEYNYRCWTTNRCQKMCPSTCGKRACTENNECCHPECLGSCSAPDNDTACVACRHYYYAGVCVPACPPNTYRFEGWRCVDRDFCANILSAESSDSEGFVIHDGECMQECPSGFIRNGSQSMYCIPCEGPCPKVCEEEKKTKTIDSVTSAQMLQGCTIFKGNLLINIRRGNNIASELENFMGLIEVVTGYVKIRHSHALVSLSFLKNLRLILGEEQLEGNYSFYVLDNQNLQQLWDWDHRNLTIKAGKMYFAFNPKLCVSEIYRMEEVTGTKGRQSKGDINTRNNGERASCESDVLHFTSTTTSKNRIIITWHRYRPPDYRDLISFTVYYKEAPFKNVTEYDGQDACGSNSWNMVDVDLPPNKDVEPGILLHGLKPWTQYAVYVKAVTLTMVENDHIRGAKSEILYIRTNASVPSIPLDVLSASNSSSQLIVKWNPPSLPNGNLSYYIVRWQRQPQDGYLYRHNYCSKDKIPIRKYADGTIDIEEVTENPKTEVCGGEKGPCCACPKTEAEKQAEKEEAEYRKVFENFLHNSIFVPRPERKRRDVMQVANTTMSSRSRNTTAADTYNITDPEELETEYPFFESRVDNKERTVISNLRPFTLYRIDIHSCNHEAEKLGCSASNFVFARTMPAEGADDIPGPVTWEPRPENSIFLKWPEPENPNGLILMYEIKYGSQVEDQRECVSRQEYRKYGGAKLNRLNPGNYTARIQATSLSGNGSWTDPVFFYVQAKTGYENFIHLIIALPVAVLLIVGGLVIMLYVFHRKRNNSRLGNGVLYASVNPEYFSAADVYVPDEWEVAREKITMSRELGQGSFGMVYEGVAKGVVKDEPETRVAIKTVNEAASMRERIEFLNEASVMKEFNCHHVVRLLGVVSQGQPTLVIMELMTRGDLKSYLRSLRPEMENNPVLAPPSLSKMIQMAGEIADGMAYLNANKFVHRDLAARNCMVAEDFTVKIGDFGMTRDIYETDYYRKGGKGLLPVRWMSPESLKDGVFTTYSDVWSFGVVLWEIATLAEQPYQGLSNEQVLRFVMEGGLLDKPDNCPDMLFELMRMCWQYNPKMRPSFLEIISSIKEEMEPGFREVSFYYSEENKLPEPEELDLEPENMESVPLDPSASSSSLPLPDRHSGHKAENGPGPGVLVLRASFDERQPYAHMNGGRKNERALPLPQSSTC
Excerpt: as §2

JAK3 = JAK3 (Homo sapiens, UniProt P52333); assay: Kinase inhibition test; format: biochemical
Excerpt: as §2

KDR = KDR (Homo sapiens, UniProt P35968); assay: Kinase inhibition test; format: biochemical
Chain of KDR (P35968 20-1356, species assumed): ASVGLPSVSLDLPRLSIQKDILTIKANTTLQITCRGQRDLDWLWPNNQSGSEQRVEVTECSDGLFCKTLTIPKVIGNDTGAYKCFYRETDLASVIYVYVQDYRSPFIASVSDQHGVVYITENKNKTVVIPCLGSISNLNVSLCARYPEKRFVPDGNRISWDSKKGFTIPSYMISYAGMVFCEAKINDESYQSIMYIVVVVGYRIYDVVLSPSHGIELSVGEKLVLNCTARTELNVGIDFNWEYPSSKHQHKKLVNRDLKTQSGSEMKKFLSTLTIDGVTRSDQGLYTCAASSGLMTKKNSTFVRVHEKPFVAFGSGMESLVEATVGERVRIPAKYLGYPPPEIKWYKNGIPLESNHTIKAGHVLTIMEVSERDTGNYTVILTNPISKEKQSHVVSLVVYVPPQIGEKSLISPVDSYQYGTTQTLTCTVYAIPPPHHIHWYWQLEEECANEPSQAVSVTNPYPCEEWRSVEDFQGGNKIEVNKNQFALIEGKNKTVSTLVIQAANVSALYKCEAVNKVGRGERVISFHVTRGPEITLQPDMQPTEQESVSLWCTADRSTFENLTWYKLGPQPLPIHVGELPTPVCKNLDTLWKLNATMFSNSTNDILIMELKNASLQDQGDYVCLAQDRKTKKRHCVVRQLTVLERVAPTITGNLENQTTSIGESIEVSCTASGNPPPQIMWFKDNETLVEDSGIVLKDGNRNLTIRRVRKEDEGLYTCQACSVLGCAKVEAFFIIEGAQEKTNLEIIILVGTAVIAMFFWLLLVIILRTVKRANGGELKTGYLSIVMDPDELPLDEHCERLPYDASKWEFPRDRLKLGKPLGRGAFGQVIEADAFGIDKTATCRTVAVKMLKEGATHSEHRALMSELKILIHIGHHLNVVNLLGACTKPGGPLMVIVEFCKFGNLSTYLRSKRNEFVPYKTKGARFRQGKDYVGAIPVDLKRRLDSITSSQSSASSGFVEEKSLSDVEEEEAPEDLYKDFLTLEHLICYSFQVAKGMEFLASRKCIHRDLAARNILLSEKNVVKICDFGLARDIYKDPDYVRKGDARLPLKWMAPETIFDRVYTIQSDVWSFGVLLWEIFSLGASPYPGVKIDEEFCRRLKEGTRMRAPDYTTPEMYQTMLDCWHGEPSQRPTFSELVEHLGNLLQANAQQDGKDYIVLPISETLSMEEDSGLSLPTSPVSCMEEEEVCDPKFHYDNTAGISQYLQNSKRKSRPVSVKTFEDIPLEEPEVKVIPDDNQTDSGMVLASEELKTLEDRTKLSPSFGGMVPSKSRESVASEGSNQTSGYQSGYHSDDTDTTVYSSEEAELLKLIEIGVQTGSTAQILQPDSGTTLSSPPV
Excerpt: as §2

MKK6 = MKK6 (Homo sapiens, UniProt P52564); assay: Kinase inhibition test; format: biochemical
Chain of MKK6 (P52564 whole entry, species assumed): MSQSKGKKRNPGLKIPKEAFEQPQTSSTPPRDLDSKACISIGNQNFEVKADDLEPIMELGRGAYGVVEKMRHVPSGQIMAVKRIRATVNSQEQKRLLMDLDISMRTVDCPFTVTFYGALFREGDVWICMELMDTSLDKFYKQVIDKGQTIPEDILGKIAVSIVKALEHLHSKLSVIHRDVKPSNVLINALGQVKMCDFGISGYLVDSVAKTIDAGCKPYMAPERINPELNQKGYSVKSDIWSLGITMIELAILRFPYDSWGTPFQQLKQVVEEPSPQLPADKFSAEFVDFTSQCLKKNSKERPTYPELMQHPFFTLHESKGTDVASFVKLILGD
Excerpt: as §2

PAK2 = PAK2 (Homo sapiens, UniProt Q13177); assay: Kinase inhibition test; format: biochemical
Excerpt: as §2

PAK4 = PAK4 (Homo sapiens, UniProt O96013); assay: Kinase inhibition test; format: biochemical
Excerpt: as §2

PI 3-Kγ = PI 3-Kγ (Homo sapiens, UniProt P48736); assay: Kinase inhibition test; format: biochemical
Excerpt: as §2

PKBα = PKBα (Homo sapiens, UniProt P31749); assay: Kinase inhibition test; format: biochemical
Excerpt: as §2

PKBβ = PKBβ (Homo sapiens, UniProt P31751); assay: Kinase inhibition test; format: biochemical
Excerpt: as §2

ROCK-I = ROCK-I (Homo sapiens, UniProt Q13464); assay: Kinase inhibition test; format: biochemical
Excerpt: as §2

SAPK2a = SAPK2a (Homo sapiens, UniProt Q16539); assay: Kinase inhibition test; format: biochemical
Excerpt: as §2

TrkA = TrkA (Homo sapiens, UniProt P04629); assay: Kinase inhibition test; format: biochemical
Excerpt: as §2

TrkB = TrkB (Homo sapiens, UniProt Q16620); assay: Kinase inhibition test; format: biochemical
Excerpt: as §2

cSRC = cSRC (Homo sapiens, UniProt P12931); assay: Kinase inhibition test; format: biochemical
Excerpt: as §2

[3] = Stability in a silicone sheet; format: physicochemical; details: compared with SM-216289
semaphorin3A = biological target: T1, semaphorin3A (Homo sapiens, UniProt Q14563); assay: Growth cone collapse assay, E8 chick DRG; format: cell-based; set-up: expressed in transfected cells; host or cells: COS7; details: read-out: semaphorin3A inhibiting activity, IC50
T1 sequence (Q14563 21-771): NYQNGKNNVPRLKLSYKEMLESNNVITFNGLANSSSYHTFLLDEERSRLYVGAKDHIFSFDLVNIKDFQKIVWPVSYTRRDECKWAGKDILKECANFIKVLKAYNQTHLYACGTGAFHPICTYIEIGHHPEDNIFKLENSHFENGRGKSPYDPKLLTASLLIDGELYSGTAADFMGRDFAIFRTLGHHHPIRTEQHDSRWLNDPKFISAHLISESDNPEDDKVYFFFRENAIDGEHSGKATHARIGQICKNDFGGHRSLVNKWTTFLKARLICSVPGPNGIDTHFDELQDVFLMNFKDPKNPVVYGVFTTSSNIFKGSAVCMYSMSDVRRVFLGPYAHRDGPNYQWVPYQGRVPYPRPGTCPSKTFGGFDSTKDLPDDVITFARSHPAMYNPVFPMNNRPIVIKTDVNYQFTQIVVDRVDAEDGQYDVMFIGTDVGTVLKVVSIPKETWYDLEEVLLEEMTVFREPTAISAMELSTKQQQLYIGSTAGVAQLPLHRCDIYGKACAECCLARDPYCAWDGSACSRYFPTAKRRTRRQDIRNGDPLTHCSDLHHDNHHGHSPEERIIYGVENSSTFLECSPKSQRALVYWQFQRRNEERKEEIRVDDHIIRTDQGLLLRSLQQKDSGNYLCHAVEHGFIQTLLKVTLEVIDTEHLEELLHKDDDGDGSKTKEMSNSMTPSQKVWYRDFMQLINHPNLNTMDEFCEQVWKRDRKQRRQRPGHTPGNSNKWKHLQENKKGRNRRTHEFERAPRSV
Description: The growth cone collapse assay and collagen co-culture experiments were performed as previously described. To examine the effects of SM-345431-silicone, small pieces (2 × 1 × 0.3 mm; approximately 1 mg containing 1 μg of SM-345431) of the SM-345431-silicone or control-silicone were placed in a collagen gel adjacent to E8 chick DRGs and COS7 cell aggregates, as shown in Figure 1C.

Structure (SMILES): CC(=O)c1cc2c(=O)c3c(C(=O)O)c(O)c(O)cc3oc2c(C(C)=O)c1-c1coc2cc(O)c(O)c(C(=O)O)c2c1=O [SM-345431, Vinaxanthone]
- pIC50 [1]: < 5.00
- pIC50 [2]: < 5.00
- pIC50 (CDK5/p35): < 5.00
- pIC50 (CaMKII): < 5.00
- pIC50 (EGFR): 6.05
- pIC50 (EphA2): < 5.00
- pIC50 (EphA4): 6.10
- pIC50 (EphB2): 6.17
- pIC50 (EphB4): < 5.00
- pIC50 (FGFR1): < 5.00
- pIC50 (FGFR3): 6.11
- pIC50 (FGFR4): 6.19
- pIC50 (Flt1): < 5.00
- pIC50 (Flt3): < 5.00
- pIC50 (GSK3α): 5.61
- pIC50 (IGF-1R): < 5.00
- pIC50 (JAK3): < 5.00
- pIC50 (KDR): < 5.00
- pIC50 (MKK6): < 5.00
- pIC50 (PAK2): < 5.00
- pIC50 (PAK4): < 5.00
- pIC50 (PI 3-Kγ): < 5.00
- pIC50 (PKBα): < 5.00
- pIC50 (PKBβ): < 5.00
- pIC50 (ROCK-I): < 5.00
- pIC50 (SAPK2a): < 5.00
- pIC50 (TrkA): < 5.00
- pIC50 (TrkB): < 5.00
- pIC50 (cSRC): < 5.00
- stability in a silicone sheet [3]: better stability in a silicone sheet than SM-216289
- pIC50 (semaphorin3A): 6.70 to 7.00
